The CheMixHub viscosity set
“And” between values parts separate entries of the source, which are not always exact repeats. Equal values may be shown once.

What was measured:
[1] = xn = mol fraction of the nth substance listed

CCCCCC(=O)[O-].[NH3+]CCO
101 kPa
Settings	viscosity [mPa·s]
293.15 K	2571
298.15 K	1765
303.15 K	1239
308.15 K	892.2
313.15 K	645.8
318.15 K	477.6
323.15 K	358.5

CCCCCCCCCCCC[P+](CC)(CC)CC.N#Cc1ccc[n-]1
100 kPa
Settings	viscosity
293.15 K	422 mPa·s and 423 mPa·s
298.15 K	296 mPa·s and 310 mPa·s
303.15 K	212 mPa·s and 214 mPa·s
313.15 K	117 mPa·s and 114 mPa·s

CCCCCCCCCCO
Settings	viscosity
293.15 K, 100 kPa	14.27 mPa·s
293.15 K, 101 kPa	13.04 mPa·s
293.15 K, 101.33 kPa	14.55 mPa·s
298.15 K, 101.33 kPa	11.57 mPa·s
300 K, 101 kPa	10.3 mPa·s
303.15 K, 100 kPa	9.708 mPa·s
303.15 K, 101.3 kPa	8.835 mPa·s
308 K, 101 kPa	7.646 mPa·s
308.15 K, 100 kPa	8.108 mPa·s
308.15 K, 101.3 kPa	8.39 mPa·s
308.15 K, 101.33 kPa	7.918 mPa·s
310 K, 101 kPa	7.09 mPa·s
313 K, 101 kPa	6.396 mPa·s
313.15 K, 100 kPa	6.846 mPa·s
313.15 K, 101 kPa	6.846 mPa·s and 7.929 mPa·s and 6.845 mPa·s
313.15 K, 101.3 kPa	6.955 mPa·s
313.15 K, 101.33 kPa	6.955 mPa·s and 6.955 mPa·s and 6.955 mPa·s
318.15 K, 100 kPa	5.879 mPa·s and 5.771 mPa·s and 5.785 mPa·s
318.15 K, 101.3 kPa	5.878 mPa·s
320 K, 101 kPa	5 mPa·s
323.15 K, 100 kPa	4.918 mPa·s and 4.94 mPa·s

CCOC(=O)OCC
Settings	viscosity
293.15 K, 101 kPa	0.8024 mPa·s
298.15 K, 101 kPa	0.74 mPa·s and 0.7539 mPa·s
303.15 K, 100 kPa	0.698 mPa·s
303.15 K, 101 kPa	0.701 mPa·s
308.15 K, 100 kPa	0.65 mPa·s
308.15 K, 101 kPa	0.656 mPa·s
313.15 K, 100 kPa	0.622 mPa·s
313.15 K, 101 kPa	0.621 mPa·s
318.15 K, 100 kPa	0.58 mPa·s
318.15 K, 101.3 kPa	0.578 mPa·s
318.15 K, 101.33 kPa	0.578 mPa·s
323.15 K, 100 kPa	0.54 mPa·s
323.15 K, 101 kPa	0.543 mPa·s

CCn1cc[n+](C)c1.F[B-](F)(F)F
viscosity
Settings	293.15 K	298.15 K	303.15 K	313.15 K	323.15 K
100 kPa	50.54 mPa·s	41.45 mPa·s	34.53 mPa·s	24.83 mPa·s	18.62 mPa·s
101 kPa	–	36.8 mPa·s	28 mPa·s and 28 mPa·s	20.41 mPa·s and 20.41 mPa·s	15.35 mPa·s and 15.35 mPa·s

CN1CCN(C)C1=O
100 kPa
Settings	viscosity [mPa·s]
293.15 K	2.139
298.15 K	1.945
303.15 K	1.76
308.15 K	1.616
313.15 K	1.491
318.15 K	1.381
323.15 K	1.28

COCCOCCO
viscosity
Settings	293.15 K	298.15 K	303.15 K	308.15 K	313.15 K	318.15 K	323.15 K
101 kPa	3.906 mPa·s	3.442 mPa·s and 3.574 mPa·s	3.152 mPa·s	2.593 mPa·s	–	2.159 mPa·s	–
101.3 kPa	3.943 mPa·s	–	3.016 mPa·s	–	2.348 mPa·s	–	1.902 mPa·s
101.33 kPa	–	3.565 mPa·s and 3.565 mPa·s	–	2.627 mPa·s and 2.865 mPa·s	–	–	–

Cc1ccc(Cl)cc1
viscosity
Settings	298.15 K	303.15 K	308.15 K	313.15 K	318.15 K
100 kPa	0.83 mPa·s	0.782 mPa·s	0.724 mPa·s and 0.737 mPa·s	0.682 mPa·s	0.632 mPa·s and 0.662 mPa·s
101 kPa	–	0.782 mPa·s and 0.782 mPa·s	0.728 mPa·s	0.684 mPa·s and 0.682 mPa·s	0.632 mPa·s

Cc1ccccc1C
Settings	viscosity
293.15 K, 101 kPa	0.7604 mPa·s
293.15 K, 101.33 kPa	0.812 mPa·s
298.15 K, 100 kPa	0.7464 mPa·s
298.15 K, 101 kPa	0.765 mPa·s and 0.761 mPa·s
298.15 K, 101.3 kPa	0.78 mPa·s
298.15 K, 101.33 kPa	0.7587 mPa·s
303.15 K, 101 kPa	0.6725 mPa·s and 0.68 mPa·s and 0.7095 mPa·s
303.15 K, 101.3 kPa	0.7272 mPa·s and 0.7062 mPa·s
303.15 K, 101.32 kPa	0.702 mPa·s
303.15 K, 101.33 kPa	0.757 mPa·s and 0.711 mPa·s
308.15 K, 100 kPa	0.6199 mPa·s
308.15 K, 101 kPa	0.676 mPa·s and 0.656 mPa·s
308.15 K, 101.33 kPa	0.5381 mPa·s and 0.725 mPa·s and 0.659 mPa·s
313.15 K, 101.32 kPa	0.627 mPa·s
313.15 K, 101.33 kPa	0.702 mPa·s
318.15 K, 101.33 kPa	0.682 mPa·s
323.15 K, 101.3 kPa	0.5554 mPa·s

OCCN(CCO)CCO
viscosity
Settings	293.15 K	298.15 K	303.15 K	313.15 K	323.15 K
100 kPa	935 mPa·s	611 mPa·s	413 mPa·s	–	–
101 kPa	911.7 mPa·s and 795 mPa·s	607 mPa·s	403 mPa·s	201.7 mPa·s	123 mPa·s

OCCOCCOCCO
viscosity
Settings	293.15 K	298.1 K	298.15 K	308.15 K	313.15 K	318.15 K	323.15 K
100 kPa	42 mPa·s and 48.2 mPa·s and 48.4 mPa·s	–	37.1 mPa·s and 37.8 mPa·s	23.3 mPa·s	19.8 mPa·s	15.4 mPa·s and 15.83 mPa·s and 15.1 mPa·s	13.23 mPa·s
101 kPa	–	37.4 mPa·s	37.1 mPa·s	23.36 mPa·s and 21.2 mPa·s	19.8 mPa·s	15.59 mPa·s and 16.1 mPa·s	–
101.32 kPa	46.1 mPa·s	–	–	–	17.4 mPa·s	–	–

COCCOCCO + O=C1CCCN1
[1], 298.15 K, 101 kPa
Settings	viscosity [mPa·s]
x1 = 0.0019	14.15
x1 = 0.0054	14.04
x1 = 0.0129	13.78
x1 = 0.0209	13.49
x1 = 0.0311	13.16
x1 = 0.0482	12.66
x1 = 0.0682	12.11
x1 = 0.0864	11.61
x1 = 0.1139	10.99
x1 = 0.1615	9.962
x1 = 0.2074	9.178
x1 = 0.2531	8.449
x1 = 0.2817	8.045
x1 = 0.3289	7.543
x1 = 0.3814	7.009
x1 = 0.4684	6.246
x1 = 0.489	6.106
x1 = 0.5396	5.741
x1 = 0.6097	5.295
x1 = 0.6687	4.976
x1 = 0.7169	4.749
x1 = 0.7652	4.502
x1 = 0.8144	4.294
x1 = 0.8697	4.069
x1 = 0.8962	3.972
x1 = 0.9239	3.85
x1 = 0.9469	3.745
x1 = 0.9719	3.658
x2 = 0.0058	3.533
x2 = 0.0141	3.561

COC=O + O=C1CCCO1
[1], 298.15 K, 101.33 kPa
Settings	viscosity [mPa·s]
x1 = 0.0499	1.589
x1 = 0.1025	1.457
x1 = 0.153	1.367
x1 = 0.2017	1.262
x1 = 0.2492	1.175
x1 = 0.303	1.08
x1 = 0.4004	0.913
x1 = 0.4594	0.821
x1 = 0.5053	0.747
x1 = 0.5599	0.678
x1 = 0.6177	0.611
x1 = 0.7071	0.515
x1 = 0.7556	0.456
x1 = 0.8	0.426
x1 = 0.8515	0.38
x1 = 0.9005	0.344
x1 = 0.9511	0.331

Cc1ccccc1C + O=C1CCCO1
viscosity [mPa·s], [1], 101.33 kPa
Settings	x2 = 0.1199	x2 = 0.1801	x2 = 0.2998	x2 = 0.4005	x2 = 0.5044	x2 = 0.5994	x2 = 0.7011	x2 = 0.7885	x2 = 0.9087
293.15 K	0.907	0.955	1.054	1.145	1.248	1.351	1.472	1.584	1.75
298.15 K	0.854	0.901	0.996	1.081	1.175	1.269	1.379	1.48	1.629
303.15 K	0.795	0.839	0.927	1.006	1.093	1.178	1.276	1.367	1.502
308.15 K	0.747	0.787	0.867	0.937	1.014	1.09	1.179	1.263	1.39

Cc1ccc(N)cc1 + O=[N+]([O-])c1ccccc1O
[1], 323.1 K, 101 kPa
Settings	viscosity [mPa·s]
x2 = 0.296	1.835
x2 = 0.75	2.15

CCCCCCCCCCCC[P+](CC)(CC)CC.N#Cc1ccc[n-]1 + OCC(O)CO
[1], 100 kPa
Settings	viscosity [mPa·s]
293.15 K, x1 = 0.542	941
293.15 K, x1 = 0.677	861
298.15 K, x1 = 0.003	864
298.15 K, x1 = 0.01	905
298.15 K, x1 = 0.343	974
298.15 K, x1 = 0.426	715
303.15 K, x1 = 0.041	788
303.15 K, x1 = 0.056	912
303.15 K, x1 = 0.196	957
303.15 K, x1 = 0.292	734
